Measured values: patent US8940313B2, “Tyrosine-based prodrugs of antiviral agents” (priority 2010, dated 2015)
Where “and” joins values, the source holds several entries; their conditions need not be identical. Identical values can stand only once. Like-named read-outs stand apart in the source and are kept apart here.

Tests used:
[1] = test system: cowpox virus; experiment: microbe, parasite or virus in culture; assay type: cell-based; details: read-out: IC50 Cow Pox
[2] = test system: vaccinia virus; experiment: microbe, parasite or virus in culture; assay type: cell-based; details: read-out: IC50 Vaccinia
[3] = test system: herpes simplex 1 (HSV-1); experiment: microbe, parasite or virus in culture; assay type: cell-based
[4] = test system: human cytomegalovirus (HCMV); experiment: microbe, parasite or virus in culture; assay type: cell-based
[5] = test system: KB cells; experiment: cells; assay type: cell-based; details: read-out: IC50 KB
[6] = test system: HFF cells; experiment: cells; assay type: cell-based, human; details: read-out: IC50 HFF
[7] = Chemical stability: hydrolysis in 200 mM phosphate buffer, 37° C., LC-MS; details: per diastereoisomer, st = stable
[8] = Enzymatic stability: hydrolysis in rat intestinal homogenate, pH 6.5, 37° C., LC-MS; details: per diastereoisomer, st = stable; for half-life: rat, intestinal homogenate, pH 6.5, T1/2 Int. Hom.
[9] = Oral bioavailability / transport study in mice, plasma LC-MS; details: oral AUC / intravenous AUC, dose-adjusted, total HPMPA-containing species in plasma
[10] = test system: poxviruses (vaccinia and cowpox viruses); assay type: cell-based
[11] = Human alphaherpesvirus 1, read-out: IC50 HSV-1
[12] = Human betaherpesvirus 5, read-out: IC50 HCMV
[13] = pH 7.4, T1/2 Buffer pH 7.4, 200 mM phosphate buffer pH 7.4, 37° C.

Compound | IC50 ([1]; Cowpox virus, HFF) | IC50 ([2]; Orthopoxvirus vaccinia, HFF) | IC50 [3, 11] | IC50 [4, 12] | IC50 ([5]; Homo sapiens, KB, 48 h) | IC50 ([6]; Homo sapiens, HFF) | T1/2 Int. Hom. [8] | also measured
COC(=O)[C@@H](N)Cc1ccc(OP2(=O)CO[C@@H](Cn3ccc(N)nc3=O)CO2)cc1 (stereo partly drawn) [Compound 2a, Methyl-(2S)-2-amino-3-(4-{[(5S)-5-[(4-amino-2-oxo-2H-pyrimidin-1-yl)-methyl]-2-oxo-1,4,2λ^5-dioxaphosphinan-2-yl]oxy}phenyl)propanoate] | 50 µM | 4 µM | 25 µM | 0.23 µM | > 100 µM | > 100 µM | – | –
COC(=O)[C@H](Cc1ccc(OP2(=O)CO[C@@H](Cn3cnc4c(N)ncnc43)CO2)cc1)NC(=O)[C@@H](N)C(C)C (single isomer, unassigned) [1f (S,S)] | – | – | – | – | – | – | <28 min | half-life ([7]; pH 6.5, T1/2 Buffer pH 6.5, 200 mM phosphate buffer pH 6.5, 37° C.): 67 min
CC(C)(C)NC(=O)[C@H](N)Cc1ccc(OP2(=O)CO[C@@H](Cn3ccc(N)nc3=O)CO2)cc1 (stereo partly drawn) [2d (S,S)] | – | – | – | – | – | – | 203 min | –
COC(=O)[C@H](Cc1ccc(OP2(=O)CO[C@@H](Cn3cnc4c(N)ncnc43)CO2)cc1)NC(=O)[C@@H](N)C(C)C (single isomer, unassigned) [1f (S,R)] | – | – | – | – | – | – | – | half-life [8]: < 28 min
Nc1ncnc2c1ncn2C[C@H]1COP(=O)(O)CO1 [Compound 6, cHPMPA, reference compound] | 0.6 µM | 1 µM | 30 µM | 1.3 µM | > 100 µM | 100 µM | – | –
COC(=O)[C@H](N)Cc1ccc(OP2(=O)CO[C@@H](Cn3ccc(N)nc3=O)CO2)cc1 (single isomer, unassigned) [2b (S,R)] | – | – | – | – | – | – | 210 min | –
CC(C)(C)NC(=O)[C@H](N)Cc1ccc(OP2(=O)CO[C@@H](Cn3ccc(N)nc3=O)CO2)cc1 (stereo partly drawn) [2d (S,R)] | – | – | – | – | – | – | 1732 min | –
COC(=O)[C@@H](N)Cc1ccc(OP2(=O)CO[C@@H](Cn3ccc(N)nc3=O)CO2)cc1 (single isomer, unassigned) [2a (S,S)] | – | – | – | – | – | – | <30 min | half-life [7, 13]: 19 min
Nc1nc2c(ncn2COCCO)c(=O)[nH]1 [ACV, Acyclovir, reference compound] | – | – | 0.6 µM | – | – | – | – | IC50 ([3]; read-out: IC50 HSV-1): 0.7 µM
CCC(C)[C@H](N)C(=O)N[C@@H](Cc1ccc(OP2(=O)CO[C@@H](Cn3ccc(N)nc3=O)CO2)cc1)C(=O)OC (stereo partly drawn) [Compound 2f, Methyl(2S)-3-[4-({(5S)-5-[(4-amino-2-oxo-1,2-dihydropyrimidin-1-yl)methyl]-2-oxo-1,4,2λ^5-dioxaphosphinan-2-yl}oxy)phenyl]-2-[(2S)-2-amino-3-ethylbutanamido]propanoate] | 30 µM | 20 µM | 15 µM | < 0.1 µM | > 100 µM | > 100 µM | – | –
COC(=O)[C@H](Cc1ccc(OP2(=O)CO[C@@H](Cn3cnc4c(N)ncnc43)CO2)cc1)NC(=O)[C@@H](N)C(C)C (stereo partly drawn) [Compound 1f, Methyl(2S)-2-[(2S)-2-amino-3-methylbutanamido]-3-[4-({(5S)-5-[(6-amino-9H-purin-9-yl)methyl]-2-oxo-1,4,2λ^5-dioxaphosphinan-2-yl}oxy)phenyl]propanoate] | 8 µM | 4 µM | 35 µM | 0.3 µM | > 100 µM | 100 µM | – | –
CC(C)CNC(=O)[C@@H](N)Cc1ccc(OP2(=O)COC(Cn3cnc4c(N)ncnc43)CO2)cc1 (stereo partly drawn) [Compound 1e, (2S)-2-Amino-3-[4-({5-[(6-amino-9H-purin-9-yl)methyl]-2-oxo-1,4,2λ^5-dioxaphosphinan-2-yl}oxy)phenyl]-N-(2-methylpropyl)propanamide] | 7 µM | 4.5 µM | 50 µM | 0.3 µM | > 100 µM | > 100 µM | – | –
COC(=O)[C@@H](N)Cc1ccc(OP2(=O)CO[C@@H](Cn3ccc(N)nc3=O)CO2)cc1 (single isomer, unassigned) [2a (S,R)] | – | – | – | – | – | – | – | half-life [8]: < 30 min
CC(C)OC(=O)[C@@H](N)Cc1ccc(OP2(=O)CO[C@@H](Cn3ccc(N)nc3=O)CO2)cc1 (stereo partly drawn) [2c (S,R)] | – | – | – | – | – | – | <30 min | –
CC(C)CNC(=O)[C@@H](N)Cc1ccc(OP2(=O)COC(Cn3cnc4c(N)ncnc43)CO2)cc1 (single isomer, unassigned) [(S,R)-1e] | – | – | – | – | – | – | – | IC50 [1]: 2.5 µM; IC50 [2]: 1 µM; IC50 ([4]; read-out: IC50 HCMV): 0.55 µM; IC50 [5]: > 100 µM; T1/2 Int. Hom. ([8]; listed as 1e (S,R)): 630 min
CC(C)CNC(=O)[C@@H](N)Cc1ccc(OP2(=O)COC(Cn3cnc4c(N)ncnc43)CO2)cc1 (single isomer, unassigned) [(S,S)-1e] | 2 µM | 1.5 µM | – | – | > 100 µM | > 100 µM | – | IC50 ([3]; read-out: IC50 HSV-1): 35 µM; IC50 ([4]; read-out: IC50 HCMV): 1.3 µM; T1/2 Int. Hom. ([8]; listed as 1e (S,S)): 114 min
Nc1ncnc2c1ncn2C[C@@H](CO)OCP(=O)(O)O [Compound 1, (S)-9-(3hydroxy-2-phosphonyl-methoxypropyl)adenine, reference compound] | – | – | – | – | – | – | – | IC50 [1]: 4 µM; IC50 [2]: 2 µM; IC50 ([3]; read-out: IC50 HSV-1): 35 µM; IC50 ([4]; read-out: IC50 HCMV): 0.41 µM; IC50 [5]: > 100 µM; total oral bioavailability [9]: 5%
COC(=O)[C@@H](N)Cc1ccc(OP2(=O)CO[C@@H](Cn3cnc4c(N)ncnc43)CO2)cc1 (stereo partly drawn) [Compound 1a, Methyl(2S)-2-amino-3-(4-{[(5S)-5-[(6-amino-9H-purin-9-yl)methyl]-2-oxo-1,4,2λ^5-dioxaphosphinan-2-yl]oxy}phenyl)propanoate] | 3.5 µM | 3 µM | 35 µM | 0.45 µM | > 100 µM | > 100 µM | – | –
CC(C)OC(=O)[C@@H](N)Cc1ccc(OP2(=O)CO[C@@H](Cn3ccc(N)nc3=O)CO2)cc1 (stereo partly drawn) [Compound 2c] | – | – | – | – | – | – | – | IC50 [1]: 40 µM; IC50 [2]: 30 µM; IC50 ([3]; read-out: IC50 HSV-1): 20 µM; IC50 ([4]; read-out: IC50 HCMV): 0.12 µM; IC50 [5]: > 100 µM; IC50 [6]: > 100 µM
Nc1ccn(C[C@@H](CO)OCP(=O)(O)O)c(=O)n1 [Compound 2, (S)-HPMPC, reference compound] | 30 µM | 20 µM | – | 0.28 µM | – | 100 µM | – | IC50 [1]: 15 µM and 20 µM; IC50 [2]: 15 µM
COC(=O)[C@@H](N)Cc1ccc(OP2(=O)CO[C@@H](Cn3cnc4c(N)ncnc43)CO2)cc1 (single isomer, unassigned) [1a (S,S)] | – | – | – | – | – | – | <28 min | –
COC(=O)[C@H](N)Cc1ccc(OP2(=O)CO[C@@H](Cn3ccc(N)nc3=O)CO2)cc1 (single isomer, unassigned) [2b (S,S)] | – | – | – | – | – | – | 72 min | half-life [7, 13]: 21 min
Nc1nc(O)c2ncn(COC(CO)CO)c2n1 [DHPG, ganciclovir, reference compound] | – | – | – | 2.4 µM | – | > 100 µM | – | –
CC(C)OC(=O)[C@@H](N)Cc1ccc(OP2(=O)CO[C@@H](Cn3ccc(N)nc3=O)CO2)cc1 (stereo partly drawn) [2c (S,S)] | – | – | – | – | – | – | <30 min | –
COC(=O)[C@@H](N)Cc1ccc(OP2(=O)CO[C@@H](Cn3cnc4c(N)ncnc43)CO2)cc1 (single isomer, unassigned) [1a (S,R)] | – | – | – | – | – | – | – | half-life [8]: < 28 min
COC(=O)[C@H](N)Cc1ccc(OP2(=O)CO[C@@H](Cn3ccc(N)nc3=O)CO2)cc1 (stereo partly drawn) [Compound 2b, Methyl(2R)-2-amino-3-(4-{[(5S)-5-[(4-amino-2-oxo-2H-pyrimidin-1-yl)-methyl]-2-oxo-1,4,2λ^5-dioxaphosphinan-2-yl]oxy}phenyl)propanoate] | 35 µM | 25 µM | 35 µM | 0.2 µM | > 100 µM | > 100 µM | – | –
CC(C)CNC(=O)[C@@H](N)Cc1ccc(OP(=O)(O)CO[C@H](CO)Cn2cnc3c(N)ncnc32)cc1 [Compound 8, 4-[(2S)-2-amino-2-[(2-methylpropyl)carbamoyl]ethyl]phenoxy({[(2S)-1-(6-amino-9H-purin-9-yl)-3-hydroxypropan-2-yl]oxy}methyl)phosphinic acid] | 3 µM | 0.5 µM | 45 µM | 0.29 µM | > 100 µM | > 100 µM | st | activity against all these viruses [10]: active
